In patent US20100267561A1, “HERBICIDAL PYRIDAZINONE DERIVATIVES” (priority 2007, published 2010):

Assays:
Experiment in all cases: Test E pre-/postemergence plant response
Type in all cases: in vivo
Settings in all cases: scale 0 to 100
[1] = test system: goosegrass (Eleusine indica)
Summary of the method: (§1)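 Seeds were planted and treated preemergence with compound formulated in a non-phytotoxic solvent mixture containing surfactant; postemergence sprays in the same formulation went onto plants 2 to 18 cm tall (1- to 4-leaf stage). After 14 to 21 days in a greenhouse, injury versus untreated controls was rated visually, 0 (no effect) to 100 (complete control).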

[2] = test system: annual bluegrass (Poa annua)
Summary of the method: as §1

[3] = test system: barnyardgrass (Echinochloa crus-galli)
Summary of the method: as §1

[4] = test system: black mustard (Brassica nigra)
Summary of the method: as §1

[5] = test system: guineagrass (Panicum maximum)
Summary of the method: as §1

[6] = test system: green foxtail (Setaria viridis)
Summary of the method: as §1

[7] = test system: common purslane (Portulaca oleracea)
Summary of the method: as §1

[8] = test system: common mallow (Malva sylvestris)
Summary of the method: as §1

[9] = test system: pitted morningglory (Ipomoea lacunosa)
Summary of the method: as §1

[10] = test system: Italian ryegrass (Lolium multiflorum)
Summary of the method: as §1

[11] = test system: common groundsel (Senecio vulgaris)
Summary of the method: as §1

[12] = test system: quackgrass (Elytrigia repens)
Summary of the method: as §1

[13] = test system: dallisgrass (Paspalum dilatatum)
Summary of the method: as §1

CCOC(=O)Oc1cnn(C)c(=O)c1-n1nc(-c2ccc(Cl)cc2)cc1C [Compound 53]
Plant response rating, Goosegrass ([1]; 16 g ai/ha, Preemergence): 80
Plant response rating, Goosegrass ([1]; 31 g ai/ha, Preemergence): 100
Plant response rating, Goosegrass ([1]; 62 g ai/ha, Preemergence): 100
Plant response rating, Goosegrass ([1]; Postemergence, 8 g ai/ha): 20
Plant response rating, Goosegrass ([1]; Postemergence, 16 g ai/ha): 65
Plant response rating, Goosegrass ([1]; Postemergence, 31 g ai/ha): 80
Plant response rating, Goosegrass ([1]; Postemergence, 62 g ai/ha): 95
Plant response rating, Bluegrass ([2]; 16 g ai/ha, Preemergence): 0
Plant response rating, Bluegrass ([2]; 31 g ai/ha, Preemergence): 0
Plant response rating, Bluegrass ([2]; 62 g ai/ha, Preemergence): 60
Plant response rating, Bluegrass ([2]; Postemergence, 8 g ai/ha): 0
Plant response rating, Bluegrass ([2]; Postemergence, 16 g ai/ha): 0
Plant response rating, Bluegrass ([2]; Postemergence, 31 g ai/ha): 0
Plant response rating, Bluegrass ([2]; Postemergence, 62 g ai/ha): 0
Plant response rating, Barnyardgrass ([3]; 16 g ai/ha, Preemergence): 95
Plant response rating, Barnyardgrass ([3]; 31 g ai/ha, Preemergence): 100
Plant response rating, Barnyardgrass ([3]; 62 g ai/ha, Preemergence): 100
Plant response rating, Barnyardgrass ([3]; Postemergence, 8 g ai/ha): 100
Plant response rating, Barnyardgrass ([3]; Postemergence, 16 g ai/ha): 100
Plant response rating, Barnyardgrass ([3]; Postemergence, 31 g ai/ha): 100
Plant response rating, Barnyardgrass ([3]; Postemergence, 62 g ai/ha): 100
Plant response rating, Mustard, Black ([4]; 16 g ai/ha, Preemergence): 0
Plant response rating, Mustard, Black ([4]; 31 g ai/ha, Preemergence): 0
Plant response rating, Mustard, Black ([4]; 62 g ai/ha, Preemergence): 25
Plant response rating, Mustard, Black ([4]; Postemergence, 8 g ai/ha): 0
Plant response rating, Mustard, Black ([4]; Postemergence, 16 g ai/ha): 0
Plant response rating, Mustard, Black ([4]; Postemergence, 31 g ai/ha): 0
Plant response rating, Mustard, Black ([4]; Postemergence, 62 g ai/ha): 0
Plant response rating, Guineagrass ([5]; 16 g ai/ha, Preemergence): 98
Plant response rating, Guineagrass ([5]; 31 g ai/ha, Preemergence): 100
Plant response rating, Guineagrass ([5]; 62 g ai/ha, Preemergence): 100
Plant response rating, Guineagrass ([5]; Postemergence, 8 g ai/ha): 90
Plant response rating, Guineagrass ([5]; Postemergence, 16 g ai/ha): 98
Plant response rating, Guineagrass ([5]; Postemergence, 31 g ai/ha): 100
Plant response rating, Guineagrass ([5]; Postemergence, 62 g ai/ha): 100
Plant response rating, Foxtail, Green ([6]; 16 g ai/ha, Preemergence): 20
Plant response rating, Foxtail, Green ([6]; 31 g ai/ha, Preemergence): 65
Plant response rating, Foxtail, Green ([6]; 62 g ai/ha, Preemergence): 100
Plant response rating, Foxtail, Green ([6]; Postemergence, 8 g ai/ha): 70
Plant response rating, Foxtail, Green ([6]; Postemergence, 16 g ai/ha): 80
Plant response rating, Foxtail, Green ([6]; Postemergence, 31 g ai/ha): 90
Plant response rating, Foxtail, Green ([6]; Postemergence, 62 g ai/ha): 100
Plant response rating, Purslane ([7]; 16 g ai/ha, Preemergence): 0
Plant response rating, Purslane ([7]; 31 g ai/ha, Preemergence): 0
Plant response rating, Purslane ([7]; 62 g ai/ha, Preemergence): 0
Plant response rating, Purslane ([7]; Postemergence, 8 g ai/ha): 0
Plant response rating, Purslane ([7]; Postemergence, 16 g ai/ha): 0
Plant response rating, Purslane ([7]; Postemergence, 31 g ai/ha): 0
Plant response rating, Purslane ([7]; Postemergence, 62 g ai/ha): 0
Plant response rating, Mallow ([8]; 62 g ai/ha, Preemergence): 0
Plant response rating, Mallow ([8]; Postemergence, 8 g ai/ha): 0
Plant response rating, Mallow ([8]; Postemergence, 16 g ai/ha): 0
Plant response rating, Mallow ([8]; Postemergence, 31 g ai/ha): 0
Plant response rating, Mallow ([8]; Postemergence, 62 g ai/ha): 0
Plant response rating, Morningglory ([9]; 16 g ai/ha, Preemergence): 0
Plant response rating, Morningglory ([9]; 31 g ai/ha, Preemergence): 0
Plant response rating, Morningglory ([9]; 62 g ai/ha, Preemergence): 35
Plant response rating, Morningglory ([9]; Postemergence, 8 g ai/ha): 0
Plant response rating, Morningglory ([9]; Postemergence, 16 g ai/ha): 0
Plant response rating, Morningglory ([9]; Postemergence, 31 g ai/ha): 0
Plant response rating, Morningglory ([9]; Postemergence, 62 g ai/ha): 30
Plant response rating, Ryegrass, Italian ([10]; 16 g ai/ha, Preemergence): 90
Plant response rating, Ryegrass, Italian ([10]; 31 g ai/ha, Preemergence): 100
Plant response rating, Ryegrass, Italian ([10]; 62 g ai/ha, Preemergence): 100
Plant response rating, Ryegrass, Italian ([10]; Postemergence, 8 g ai/ha): 80
Plant response rating, Ryegrass, Italian ([10]; Postemergence, 16 g ai/ha): 100
Plant response rating, Ryegrass, Italian ([10]; Postemergence, 31 g ai/ha): 100
Plant response rating, Ryegrass, Italian ([10]; Postemergence, 62 g ai/ha): 100
Plant response rating, Groundsel ([11]; 16 g ai/ha, Preemergence): 0
Plant response rating, Groundsel ([11]; 31 g ai/ha, Preemergence): 0
Plant response rating, Groundsel ([11]; 62 g ai/ha, Preemergence): 0
Plant response rating, Groundsel ([11]; Postemergence, 8 g ai/ha): 0
Plant response rating, Groundsel ([11]; Postemergence, 16 g ai/ha): 0
Plant response rating, Groundsel ([11]; Postemergence, 31 g ai/ha): 0
Plant response rating, Groundsel ([11]; Postemergence, 62 g ai/ha): 0
Plant response rating, Quackgrass ([12]; 16 g ai/ha, Preemergence): 35
Plant response rating, Quackgrass ([12]; 31 g ai/ha, Preemergence): 65
Plant response rating, Quackgrass ([12]; 62 g ai/ha, Preemergence): 70
Plant response rating, Quackgrass ([12]; Postemergence, 8 g ai/ha): 0
Plant response rating, Quackgrass ([12]; Postemergence, 16 g ai/ha): 0
Plant response rating, Quackgrass ([12]; Postemergence, 31 g ai/ha): 0
Plant response rating, Quackgrass ([12]; Postemergence, 62 g ai/ha): 30
Plant response rating, Dallisgrass ([13]; 16 g ai/ha, Preemergence): 65
Plant response rating, Dallisgrass ([13]; 31 g ai/ha, Preemergence): 80
Plant response rating, Dallisgrass ([13]; 62 g ai/ha, Preemergence): 95
Plant response rating, Dallisgrass ([13]; Postemergence, 8 g ai/ha): 0
Plant response rating, Dallisgrass ([13]; Postemergence, 16 g ai/ha): 20
Plant response rating, Dallisgrass ([13]; Postemergence, 31 g ai/ha): 30
Plant response rating, Dallisgrass ([13]; Postemergence, 62 g ai/ha): 75

Cc1cc(-c2ccc(Cl)cc2)nn1-c1c(OC(=O)Oc2ccccc2)cnn(C)c1=O [Compound 54]
Plant response rating, Goosegrass ([1]; 8 g ai/ha, Postemergence): 0
Plant response rating, Goosegrass ([1]; Postemergence, 16 g ai/ha): 0
Plant response rating, Goosegrass ([1]; Postemergence, 31 g ai/ha): 50
Plant response rating, Goosegrass ([1]; Postemergence, 62 g ai/ha): 95
Plant response rating, Bluegrass ([2]; 8 g ai/ha, Postemergence): 0
Plant response rating, Bluegrass ([2]; Postemergence, 16 g ai/ha): 0
Plant response rating, Bluegrass ([2]; Postemergence, 31 g ai/ha): 0
Plant response rating, Bluegrass ([2]; Postemergence, 62 g ai/ha): 0
Plant response rating, Barnyardgrass ([3]; Postemergence, 8 g ai/ha): 95
Plant response rating, Barnyardgrass ([3]; Postemergence, 16 g ai/ha): 98
Plant response rating, Barnyardgrass ([3]; Postemergence, 31 g ai/ha): 100
Plant response rating, Barnyardgrass ([3]; Postemergence, 62 g ai/ha): 100
Plant response rating, Mustard, Black ([4]; Postemergence, 8 g ai/ha): 0
Plant response rating, Mustard, Black ([4]; Postemergence, 16 g ai/ha): 0
Plant response rating, Mustard, Black ([4]; Postemergence, 31 g ai/ha): 0
Plant response rating, Mustard, Black ([4]; Postemergence, 62 g ai/ha): 0
Plant response rating, Guineagrass ([5]; 8 g ai/ha, Postemergence): 95
Plant response rating, Guineagrass ([5]; Postemergence, 16 g ai/ha): 95
Plant response rating, Guineagrass ([5]; Postemergence, 31 g ai/ha): 95
Plant response rating, Guineagrass ([5]; Postemergence, 62 g ai/ha): 100
Plant response rating, Foxtail, Green ([6]; 8 g ai/ha, Postemergence): 40
Plant response rating, Foxtail, Green ([6]; Postemergence, 16 g ai/ha): 70
Plant response rating, Foxtail, Green ([6]; Postemergence, 31 g ai/ha): 80
Plant response rating, Foxtail, Green ([6]; Postemergence, 62 g ai/ha): 98
Plant response rating, Purslane ([7]; 8 g ai/ha, Postemergence): 0
Plant response rating, Purslane ([7]; Postemergence, 16 g ai/ha): 0
Plant response rating, Purslane ([7]; Postemergence, 31 g ai/ha): 0
Plant response rating, Purslane ([7]; Postemergence, 62 g ai/ha): 0
Plant response rating, Mallow ([8]; 8 g ai/ha, Postemergence): 0
Plant response rating, Mallow ([8]; Postemergence, 16 g ai/ha): 0
Plant response rating, Mallow ([8]; Postemergence, 31 g ai/ha): 0
Plant response rating, Mallow ([8]; Postemergence, 62 g ai/ha): 0
Plant response rating, Morningglory ([9]; 8 g ai/ha, Postemergence): 0
Plant response rating, Morningglory ([9]; Postemergence, 16 g ai/ha): 0
Plant response rating, Morningglory ([9]; Postemergence, 31 g ai/ha): 0
Plant response rating, Morningglory ([9]; Postemergence, 62 g ai/ha): 0
Plant response rating, Ryegrass, Italian ([10]; 8 g ai/ha, Postemergence): 80
Plant response rating, Ryegrass, Italian ([10]; Postemergence, 16 g ai/ha): 80
Plant response rating, Ryegrass, Italian ([10]; Postemergence, 31 g ai/ha): 100
Plant response rating, Ryegrass, Italian ([10]; Postemergence, 62 g ai/ha): 100
Plant response rating, Groundsel ([11]; 8 g ai/ha, Postemergence): 0
Plant response rating, Groundsel ([11]; Postemergence, 16 g ai/ha): 0
Plant response rating, Groundsel ([11]; Postemergence, 31 g ai/ha): 0
Plant response rating, Quackgrass ([12]; 8 g ai/ha, Postemergence): 0
Plant response rating, Quackgrass ([12]; Postemergence, 16 g ai/ha): 0
Plant response rating, Quackgrass ([12]; Postemergence, 31 g ai/ha): 0
Plant response rating, Quackgrass ([12]; Postemergence, 62 g ai/ha): 35
Plant response rating, Dallisgrass ([13]; 8 g ai/ha, Postemergence): 20
Plant response rating, Dallisgrass ([13]; Postemergence, 16 g ai/ha): 30
Plant response rating, Dallisgrass ([13]; Postemergence, 31 g ai/ha): 40
Plant response rating, Dallisgrass ([13]; Postemergence, 62 g ai/ha): 80
